Where a chain is given by its changes, count along the chain named. Where a SMILES comes first, the peptide text is derived from it. The star is where a group is joined. Cbz = O=C(OCc1ccccc1)*
Tests used:
HEK 562 = assay: Porphyrin accumulation (fluorocytes) by FACS in cellular model of CEP; format: cell-based, human; conditions: HEK 562 CEP model
Protocol: FIG. 3: Evaluation of UROI levels in a normal HEK cellular phenotype [Up-left graph], in a human in vitro cellular model of CEP (HEK 562) [Up-right graph], in HEK 562 with a tool compound (a proteasome inhibitor termed in the data MG) [Down-left graph], and in HEK 562 with ciclopirox [Down-right graph]. The accumulation of porphyrins is measured by fluorescence spectroscopy (fluorocytes) and is depicted in as the right-shift of the population as compared to normal cells (that are concentrated on the left due to the absence of intrinsic fluorescence). The numbers in bold indicate the percentage of cells in each of the specific populations. CP=ciclopirox, MG=proteasomal inhibitor MG132.
The current supporting data disclosed is in relation to a human in vitro cellular model of CEP (HEK 562) in which there is a stable genomic defect introduced into the uroporphyrinogen III synthase enzyme which drives the accumulation of toxic porphyrins and ultimately the pathology of CEP (including the characteristic disabling and disfiguring skin lesions in CEP patients). […] The accumulation of porphyrins is measured by fluorescence spectroscopy (fluorocytes) and appear shifted to the right as compared to normal cells (which are concentrated in the left area). The numbers in bold indicate the percentage of cells in each of the specific populations. […]

HEK 562 cells = assay: HPLC quantification of UROI in cellular model of CEP; format: cell-based, human; conditions: equimolar quantities of MG and ciclopirox
Protocol: Inset: variation of the concentration of UROI as a function of the CP concentration, in comparison to MG and the absence of any chemical. CP=ciclopirox, MG=proteasomal inhibitor MG132, UROI=uroporphyrinogen I.
Moreover, the reduction in the fluorescence corresponds to a decrease in the intracellular concentration of UROI (see FIG. 4).
HPLC was used to separate and quantify UROI and UROIII products from PBGD and UROIIIS-C73N enzymatic assays and from cellular extracts. HPLC was carried out on a ODS Hypersil C18 column (5 um, 3×200 mm; Thermo Scientific, MA, USA). Porphyrins were separated with a 15 min isocratic elution in a mobile phase of 89% 1M ammonium acetate buffer pH 5.16 and 11% Acetonitrile, at a flow rate of 0.5 mL/min, and were detected by fluorescence with an excitation wavelength 405 nm and emission wavelength 610 nm, which is characteristic of porphyrins. The sample injection volume was […].

[1] = tested on: mouse in vivo model of CEP; conditions: associated with elevation of cellular UROIIIS levels; cited from earlier work
C73N-UROIIIS = biological target: T1, C73N-UROIIIS (Homo sapiens, UniProt P10746, C73N); assay: In vitro enzymatic assay of UROIIIS (PBGD-coupled, as a function of PBG concentration); format: biochemical; conditions: ratio UROIIIS:ciclopirox 1:5
T1 construct: made in house
T1 sequence (P10746 1-265 C73N): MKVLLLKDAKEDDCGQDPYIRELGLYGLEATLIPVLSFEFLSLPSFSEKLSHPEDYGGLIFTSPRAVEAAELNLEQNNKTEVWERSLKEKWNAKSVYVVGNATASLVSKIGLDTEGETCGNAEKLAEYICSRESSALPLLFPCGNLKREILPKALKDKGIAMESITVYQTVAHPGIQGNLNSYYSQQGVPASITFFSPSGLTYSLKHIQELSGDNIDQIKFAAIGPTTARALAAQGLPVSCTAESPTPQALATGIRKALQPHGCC
Protocol: FIG. 1: evaluation of the C73N-UROIIIS catalytic activity as a function of the PBG concentration. Porphobilinogen deaminase (PBGD) converts porphobilinogen (PBG) into preuroporphirinogen, the substrate for UROIIIS. PBGD is added in excess, acting as a reagent and the experiment reports only on the catalytic activity of the uroporphyrinogen III synthase. The solid/dashed lines correspond to the experimental points in the absence/presence of ciclopirox at a ratio UROIIIS:ciclopyrox 1:5.
The in vitro activity of a deleterious variant of the UROIIIS is measured as a function of the PBG concentration. […] C73N-UROIIIS produces reduced catalytic activity of the enzyme (FIG. 1, solid line).
The assay is based on the method described by Jordan (Shoolingin-Jordan P M et al. (1997). Methods in enzymology 281: 327-336) with some modifications. […] of porphobilinogen deaminase (PBGD) at a concentration of […] in […] of buffer (20 mM Tris-HCl pH 8.0, NaCl 150 mM, pH 8.0) is add in a 96 weels plate. […] of the porphobilinogen (PBG) substrate are then added, diluted to different concentrations (0.1, 0.4, 0.8, 1.5, 2, 3, 4 mM) in the aforementioned buffer and are incubated at 37° C. for one minute. […] Finally, we measure the change of absorbance at 405 nm with respect to the control sample in a plate ABS reader.

UROIIIS = biological target: T2, UROIIIS (Homo sapiens, UniProt P10746); assay: Direct binding by NMR spectroscopy
T2 construct: made in house
T2 sequence (P10746 1-265): T1 sequence (P10746 1-265 C73N) with N73C

C73R- and P248Q-UROIIIS = biological target: T3, C73R- and P248Q-UROIIIS (Homo sapiens, UniProt P10746, C73R); assay: UROIIIS-GFP protein levels (GFP fluorescence) in HEK cells stably expressing mutants; format: cell-based; conditions: HEK cells expressing C73R or P248Q mutants, compared with WT-UROIIIS
T3 construct: expressed in transfected cells
T3 sequence (P10746 1-265 C73R): T1 sequence (P10746 1-265 C73N) with N73R
Text: FIG. 2: A fusion construct with GFP (C73R-UROIIIS-GFP) has been stably expressed in HEK cells to measure the increase in the protein levels, by monitoring the intrinsic GFP fluorescence. […] Introduction of the pathogenic mutations (i. e. C73R or P248Q) reduces the intrinsic fluorescence due to a decrease in the intracellular UROIIIS concentration. […] For comparison, data obtained with a powerful proteasome inhibitor (MG) is also included. Dashed lines correspond to error bars. CP=ciclopirox, MG=proteasomal inhibitor MG132.
Specifically, we have tested the protein expression for the two most aggressive mutations: C73R- and P248Q-UROIIIS (FIG. 2), utilising human embryonic kidney cells (HEK) stably expressing these mutations.

[2] = tested on: murine model of CEP (P248Q+/+); assay: Murine model of CEP treated with ciclopirox in food; format: in vivo, mouse
Text: FIG. 5: Change in porphyrin levels and consequent effect on splenomegaly in mice treated with ciclopirox (CPX). A) Left: URO I or B) COPRO I porphyrin concentration in red blood cells (RBC) as determined by HPLC analysis for the mouse group treated with CPX (n=7, solid line) and the control group (n=9, dashed line). Right: representation of the same porphyrin levels but compared to their respective values at day 0 for the mice treated with CPX (solid line) and the untreated mice (dashed line). The reduction of porphyrins between the two groups is shown in grey dashed line (in percentage). C) Variation in the protoporphyrin IX (PROTO IX) concentration over time in the mouse group treated with CPX (solid line) and the control group (dashed line). D) Concentration of porphyrins in urine at day 45 of treatment (normalized versus creatinine concentration). E) Change in UROI levels in the liver at day 45 of treatment (weight normalized) F) CPX reduces splenomegaly after 45 days of treatment since the spleen volume of the untreated mice (top row) is higher than the CPX treated group (bottom row) Splenomegaly is directly associated with haemolytic anaemia.
Upon treatment disruption, the porphyrin levels are restored, but slowly.
Additionally, after 45 days of treatment, ciclopirox reduced in 40% the porphyrin levels in liver tissue (shown in FIG. 5-E for UROI) and the splenomegaly (FIG. 5-F)—evidence of reduced haemolysis. Moreover, there was a significant weight reduction of the spleen when comparing the ciclopirox group (mean 410±86 mg, FIG. 5-F bottom row) and the untreated group (mean 985±204 mg, FIG. 5-F top row).
A total of 16 animals (murine model of CEP) were used in the experiment and ciclopirox was mixed with the food pellets; 7 animals had food with ciclopirox (plasma levels achieved between 15 and 20 μM) and 9 animals were not given treatment. The isomer I porphyrin levels were monitored in the blood weekly. After a basal (pre-treatment) sample (day 0), treatment was started on day 2 and the first post-treatment sample was obtained on day 3, followed by weekly monitoring.

[3] = treated vs control group, up to day 45

SMILES	Porphyrin accumulation / cellular phenotype (fluorocytes) (HEK 562)	UROI level by HPLC (HEK 562 cells)	Skin lesions [1]	C73N-UROIIIS catalytic (enzymatic) activity (C73N-UROIIIS)	Direct binding to the enzyme (UROIIIS)	Intracellular UROIIIS-GFP fluorescence levels (C73R- and P248Q-UROIIIS)	Reduction of porphyrin levels in liver tissue (UROI) ([2]; after 45 days of treatment)	Splenomegaly ([2]; after 45 days of treatment)	Spleen weight (mean) ([2]; after 45 days of treatment, untreated group 985±204 mg)	Isomer I porphyrins in urine ([2]; day 45, normalized versus creatinine)	Protoporphyrin IX (PROTO IX) concentration ([2]; over time, treated vs control)	COPRO I porphyrin in blood (RBC) [2, 3]	URO I porphyrin in blood (RBC) [2, 3]
CC(C)C[C@@H](C=O)NC(=O)[C@H](CC(C)C)NC(=O)[C@H](CC(C)C)NC(=O)OCc1ccccc1 [MG] (Cbz-Leu-Leu-Leu-aldehyde)	reduces toxic porphyrin levels	reduction of UROI	decreased skin lesions										
Cc1cc(C2CCCCC2)n(O)c(=O)c1 [ciclopirox, 6-cyclohexyl-1-hydroxy-4-methyl-2(1H)-pyridone]	largely restore the normal HEK cellular phenotype	reduction of UROI		recovers the enzymatic activity	Direct binding has also been demonstrated	largely restitutes the fluorescence levels observed with WT-UROIIIS	40%	reduced	410 ± 86 mg	significantly reduced	increase the concentration	significantly reduced	significantly reduced
